Results published in publication PMC9579956 (RSC Medicinal Chemistry, 2022).

Molecular target: Mycobacterium thermoresistible (Mtr) LpqY (Mycolicibacterium thermoresistibile, UniProt G7CES0)
Type: binding
Settings: for Pathogen Box screen signal/noise ratio: single dose MST screen against LpqY

Sequence of Mycobacterium thermoresistible (Mtr) LpqY (G7CES0 29-471): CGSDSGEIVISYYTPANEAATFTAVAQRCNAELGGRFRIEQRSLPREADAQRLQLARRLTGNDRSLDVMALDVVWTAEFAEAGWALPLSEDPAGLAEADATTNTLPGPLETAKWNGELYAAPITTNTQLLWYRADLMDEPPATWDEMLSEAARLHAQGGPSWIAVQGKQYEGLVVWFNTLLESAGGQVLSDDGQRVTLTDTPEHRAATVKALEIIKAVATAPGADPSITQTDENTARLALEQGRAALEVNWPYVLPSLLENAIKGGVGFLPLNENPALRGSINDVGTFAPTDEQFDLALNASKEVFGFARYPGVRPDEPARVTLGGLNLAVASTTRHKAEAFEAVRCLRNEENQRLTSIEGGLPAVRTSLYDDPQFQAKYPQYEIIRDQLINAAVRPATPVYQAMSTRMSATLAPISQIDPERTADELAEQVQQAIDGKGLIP

CCc1nc2ccc(Cl)cn2c1C(=O)NCc1ccc(N2CCC(c3ccc(OC(F)(F)F)cc3)CC2)cc1 [MMV687696]
Pathogen Box screen signal/noise ratio: 1.0

O=C(NCc1cc(Cl)cc(Cl)c1)c1c(C(F)(F)F)nc2ccccn12 [MMV687699]
Pathogen Box screen signal/noise ratio: 0.8

Nc1ncnc2c1ncn2[C@@H]1O[C@H](COS(=O)(=O)NC(=O)c2ccccc2O)[C@@H](O)[C@H]1O [MMV687700]
Pathogen Box screen signal/noise ratio: 1.1

COc1cccc(-c2nc3c(N4CCCC4)cccc3n2CC2CCCN2)n1 (centres unmarked) [MMV687703]
Pathogen Box screen signal/noise ratio: 1.3

c1ccc(Oc2ccc(-c3cc(N4CCNCC4)[nH]n3)cc2)cc1 [MMV687706]
Pathogen Box screen signal/noise ratio: -0.0238

O=C1O[C@@H](CO)CN1c1cc(F)c(C2=CCN(Cc3ccccc3)CC2)c(F)c1 [MMV687729]
Pathogen Box screen signal/noise ratio: 1.5

CCCCOC(=O)Nc1cc2nc(C3CCCCC3)[nH]c2cc1N1CCCC1 [MMV687730]
Pathogen Box screen signal/noise ratio: 1.3

Cc1cc(OCC(=O)NCc2ccccc2)c2cc(Br)ccc2n1 [MMV687747]
Pathogen Box screen signal/noise ratio: 0.856

c1ccc(C[C@@H]2CN(c3nccc(Oc4ccc(-n5ccnc5)cc4)n3)CCN2)cc1 [MMV687749]
Pathogen Box screen signal/noise ratio: 0.0357

c1ccc(Oc2ccc(-c3cc(C4CCOCC4)[nH]n3)cc2)cc1 [MMV687762]
Pathogen Box screen signal/noise ratio: 0.6

Cc1cnc(N2CCN[C@@H](Cc3ccccc3)C2)nc1Oc1ccc(-n2ccnc2)cc1 [MMV687765]
Pathogen Box screen signal/noise ratio: 2.2

Cc1cc(C2=NOC(c3cc(Cl)c(F)c(Cl)c3)(C(F)(F)F)C2)ccc1C(=O)NCc1ccc2c(c1)C(C)(C)OB2O (centres unmarked) [MMV687776]
Pathogen Box screen signal/noise ratio: 1.6

CC1(C)Cc2c(c(N3CCOCC3)nc3snc(Br)c23)CO1 [MMV687794]
Pathogen Box screen signal/noise ratio: 0.0714

NCCC(O)C(=O)N[C@@H]1C[C@H](N)[C@@H](OC2O[C@H](CN)[C@@H](O)[C@H](O)[C@H]2O)[C@H](O)C1OC1O[C@H](CO)[C@@H](O)[C@H](N)[C@H]1O (some centres unmarked) [MMV687796]
Pathogen Box screen signal/noise ratio: 1.2

C[C@H]1COc2c(N3CCN(C)CC3)c(F)cc3c(=O)c(C(=O)O)cn1c23 [MMV687798]
Pathogen Box screen signal/noise ratio: 0.9

CC(C)N=c1cc2n(-c3ccc(Cl)cc3)c3ccccc3nc-2cc1Nc1ccc(Cl)cc1 [MMV687800]
Pathogen Box screen signal/noise ratio: 0.6

CC[C@H](CO)NCCN[C@H](CC)CO [MMV687801]
Pathogen Box screen signal/noise ratio: 1.5

CC(=O)NC[C@@H]1CN(c2ccc(N3CCOCC3)c(F)c2)C(=O)O1 [MMV687803]
Pathogen Box screen signal/noise ratio: 2.0

O=C(Nc1ccc(C(F)(F)F)c(C(F)(F)F)c1)c1cc(Cl)ccc1O [MMV687807]
Pathogen Box screen signal/noise ratio: 0.5

CN1CCN(CCCOc2ncc(Nc3ncc(-c4ccc(C(F)(F)F)c(F)c4)nc3C(N)=O)cn2)CC1 [MMV687812]
Pathogen Box screen signal/noise ratio: 4.1

O=C1O[C@@H](COc2ccon2)CN1c1cc(F)c(C2=CCN(Cc3ccccc3)CC2)c(F)c1 [MMV687813]
Pathogen Box screen signal/noise ratio: 1.0

Cc1cccc(-c2nc(Nc3ccncn3)c3sccc3n2)n1 [MMV688122]
Pathogen Box screen signal/noise ratio: 1.3

CCc1ccc(S(=O)(=O)Nc2cc(CN3CCN(CCC(C)C)CC3)ccc2C)cc1 [MMV688124]
Pathogen Box screen signal/noise ratio: 0.85

CCCc1ccc(S(=O)(=O)Nc2ccc(CN3CCN(CC4CC4)CC3)cc2)cc1 [MMV688125]
Pathogen Box screen signal/noise ratio: 0.6

c1ccc(Oc2ccc(-c3cncc(-c4ccc5[nH]ccc5c4)n3)cc2)cc1 [MMV688178]
Pathogen Box screen signal/noise ratio: 1.0

N=C(N)Nc1ccc(-c2ccc(-c3ccc(NC(=N)N)cc3Cl)o2)c(Cl)c1 [MMV688179]
Pathogen Box screen signal/noise ratio: 2.0

Cc1nn(C)c(C)c1NS(=O)(=O)c1c(Cl)cc(-c2ccnc(N3CCNCC3)c2)cc1Cl [MMV688180]
Pathogen Box screen signal/noise ratio: 0.15

CC1(COc2ccc(N3CCC(Oc4ccc(OC(F)(F)F)cc4)CC3)cc2)Cn2cc([N+](=O)[O-])nc2O1 (centres unmarked) [MMV688262]
Pathogen Box screen signal/noise ratio: 0.232

COc1ccc(-c2cnc3cnc(-c4cccc(OC(C)C)c4)cn23)cc1 [MMV688270]
Pathogen Box screen signal/noise ratio: 0.0179

N=C(N)Nc1ccc(-c2ccc(-c3ccc(N=C(N)N)c(Cl)c3)o2)cc1Cl [MMV688271]
Pathogen Box screen signal/noise ratio: 2.0

Nc1ccc2ncnc(Nc3ccc(OCc4cccc(F)c4)c(Cl)c3)c2c1 [MMV688273]
Pathogen Box screen signal/noise ratio: 0.8

O=C(CN1CCOCC1)Nc1ccc2ncnc(Nc3ccc(OCc4cccc(F)c4)c(Cl)c3)c2c1 [MMV688274]
Pathogen Box screen signal/noise ratio: 1.0

CC1=Nc2ccc(Cl)cc2C(O)(c2ccc(C)cc2)N1CCN1CCCCC1 (centres unmarked) [MMV688279]
Pathogen Box screen signal/noise ratio: 0.8

CN1CCN(S(=O)(=O)c2ccc(-c3ccc4c(Nc5ncc(Cl)cn5)ccnc4c3)cc2)CC1 [MMV688283]
Pathogen Box screen signal/noise ratio: 1.8

COc1ccc(-c2nnc3ccc(-c4cccc(C(C)C)c4)cn23)cc1OC [MMV688313]
Pathogen Box screen signal/noise ratio: 1.1

CC(=O)NCC1CN(c2ccc(-c3ccc(CNCc4cn[nH]n4)cc3)c(F)c2)C(=O)O1 (centres unmarked) [MMV688327]
Pathogen Box screen signal/noise ratio: 0.344

CC(=O)N1CCN(c2ccc(Oc3ccc(Cl)cc3O)cc2)CC1 [MMV688330]
Pathogen Box screen signal/noise ratio: 1.8

Nc1nc(N)c2c3c(sc2n1)CN(Cc1ccccc1)CC3 [MMV688345]
Pathogen Box screen signal/noise ratio: 2.8

COC(=O)c1ccc(F)cc1NS(=O)(=O)c1cccc(-c2cnn(Cc3ccccc3)c2)c1 [MMV688350]
Pathogen Box screen signal/noise ratio: 1.5

O=C1[C@@H](Oc2ccccc2)[C@@H](c2ccc(Cl)cc2)N1CCn1cnc2c(NCc3ccccc3)ncnc21 [MMV688352]
Pathogen Box screen signal/noise ratio: 0.212

COc1ccc(C2=NN(C3CCCCCC3)C(=O)C2(C)C)cc1OCc1ccccn1 [MMV688360]
Pathogen Box screen signal/noise ratio: 1.5

c1cc(C2=NCCN2)cc(-c2cc(-c3ccc(C4=NCCN4)cc3)no2)c1 [MMV688361]
Pathogen Box screen signal/noise ratio: 0.271

CC(C)(C)OC(=O)N1CCC(Cn2nc(-c3cnc4ccccc4c3)c3c(N)ncnc32)CC1 [MMV688364]
Pathogen Box screen signal/noise ratio: 0.6

NCCN(C(=O)c1ccc(Cl)cc1Cl)c1ccc(OCc2ccc(Cl)cc2)cc1 [MMV688371]
Pathogen Box screen signal/noise ratio: 1.7

O=C(Nc1ccc(F)c(-c2nc3cc(-c4ccccc4)cnc3[nH]2)c1)N1CCCC1 [MMV688372]
Pathogen Box screen signal/noise ratio: 0.9

COc1cc(C2=NCCN2)ccc1-c1cn(-c2cccc(C3=NCCN3)c2)nn1 [MMV688407, 4-[4-(4,5-dihydro-1H-imidazol-2-yl)-2-methoxyphenyl]-1-[3-(4,5-dihydro-1H-imidazol-2-yl)phenyl]triazole]
Screen signal/noise ratio (MST S/N) (compound 100 μM, LpqY 500 nM, 10% DMSO, duplicate): 8.0
Pathogen Box screen signal/noise ratio: 8.0

CC1=Nc2ccc(Cl)cc2C(c2ccccc2)N1CCNC(=O)CN(C)C (centres unmarked) [MMV688410]
Pathogen Box screen signal/noise ratio: 0.5

Nc1ncnc2c1c(-c1cnc3ccccc3c1)nn2CC1CCNCC1 [MMV688411]
Pathogen Box screen signal/noise ratio: 2.1

CO[C@@H]1CN(c2ccc(C#CC3(O)CN4CCC3CC4)c(Cc3ccccc3)n2)C[C@H]1O (some centres unmarked) [MMV688415]
Pathogen Box screen signal/noise ratio: 1.0

CC(C)(C)OC(=O)N1CCN(c2nccc(-c3ccc(-c4ccc(Cl)cc4)s3)n2)CC1 [MMV688416]
Pathogen Box screen signal/noise ratio: 0.333

CC(C)n1nc(-c2cc3c(Cl)cccc3[nH]2)c2c(N)ncnc21 [MMV688417]
Pathogen Box screen signal/noise ratio: 1.3

Cn1ccnc1CNCCS(=O)(=O)c1cccc(Nc2ccc(-c3cccc(F)c3)cn2)c1 [MMV688466]
Pathogen Box screen signal/noise ratio: 0.0

CCCCN(CCCC)c1c(C#N)cc(S(=O)(=O)Nc2ccccc2)cc1C#N [MMV688467]
Pathogen Box screen signal/noise ratio: 0.7

Nc1ncnc2[nH]nc(Cc3cccc4ccccc34)c12 [MMV688469]
Pathogen Box screen signal/noise ratio: 0.357

CS(=O)(=O)N1CCC(CCn2nc(Cc3cccc4ccccc34)c3c(N)ncnc32)CC1 [MMV688470]
Pathogen Box screen signal/noise ratio: 0.75

CC(C(=O)Nc1ccc2oc(-c3ccncc3)nc2c1)c1ccccc1 (centres unmarked) [MMV688471]
Pathogen Box screen signal/noise ratio: 1.6

CC(Oc1cccc(Cl)c1)C(=O)Nc1ccc2oc(-c3ccncc3)nc2c1 (centres unmarked) [MMV688472]
Pathogen Box screen signal/noise ratio: 0.7

COc1cc(C2=NCCN2)ccc1-n1cc(-c2cccc(C3=NCCN3)c2)nn1 [MMV688474]
Pathogen Box screen signal/noise ratio: 0.217

CC(=O)NCC1CN(c2ccc(-c3ccc(CO)cc3)c(F)c2)C(=O)O1 (centres unmarked) [MMV688508]
Pathogen Box screen signal/noise ratio: 0.8

O=C(OCc1ccccc1)N1CCC(c2cc(-c3ccncc3)c(-c3ccc(F)cc3)[nH]2)CC1 [MMV688509]
Pathogen Box screen signal/noise ratio: 0.0833

N=C(N)c1ccc(-c2cc(-c3ccccc3)on2)cc1 [MMV688514]
Pathogen Box screen signal/noise ratio: 1.1

CC(C)(C)C(=O)N(CCCCCCN1C[C@H](O)[C@@H](O)[C@H](O)[C@H]1CO)C1CCCCCC1 [MMV688543]
Pathogen Box screen signal/noise ratio: 1.3

COc1ccc(C2=NCCN2)cc1-c1cn(-c2cccc(C3=NCCN3)c2)nn1 [MMV688547]
Pathogen Box screen signal/noise ratio: 0.9

CC(C)(C)n1nc(-c2ccccc2)c2c(N)ncnc21 [MMV688548]
Pathogen Box screen signal/noise ratio: 1.0

CCc1ccccc1-n1c(C)cn2c3c(=O)n(C(C(=O)OC)C(C)C)c(=O)n(C)c3nc12 (centres unmarked) [MMV688550]
Pathogen Box screen signal/noise ratio: 0.222

Cc1nn(C(=O)Nc2cccc(C(F)(F)F)c2)c(C)c1Sc1ncccn1 [MMV688552]
Pathogen Box screen signal/noise ratio: 0.8

O=C(NCc1ccoc1)N1CCN(Cc2ccc3c(c2)OCO3)CC1 [MMV688553]
Pathogen Box screen signal/noise ratio: 0.8

CNc1snc(C)c1C(=O)NCCOc1ccc(OC)cc1 [MMV688554]
Pathogen Box screen signal/noise ratio: 0.8

O=C(NCc1ccco1)N1CCN(Cc2ccc(Cl)s2)CC1 [MMV688555]
Pathogen Box screen signal/noise ratio: 0.218

NCC(c1cccs1)S(=O)(=O)c1ccccc1 (centres unmarked) [MMV688557]
Pathogen Box screen signal/noise ratio: 0.569

CN1CCC(c2cc(-c3ccncc3)c(-c3ccc(F)cc3)[nH]2)CC1 [MMV688703]
Pathogen Box screen signal/noise ratio: 1.2

Cc1cc2nc(NC(=O)C(C)(C)C)nc(Cl)c2n1Cc1ccc(Cl)cc1 [MMV688704]
Pathogen Box screen signal/noise ratio: 1.2

CO/N=C(\C(=O)OC)c1ccccc1CO/N=C(\C)c1cccc(C(F)(F)F)c1 [MMV688754]
Pathogen Box screen signal/noise ratio: 1.2
